Like-named read-outs stand apart in the source and are kept apart here.

For 20 molecules, IC50 and EC50 results are on record in patent US10899758B2, “Inhibitors of the menin-MLL interaction” (Vitae Pharmaceuticals, LLC, priority 2016, dated 2021).

Experiment [1] addresses T1, menin/MLL binding (biotinylated wild-type or mutated menin and MLL-AF9 fusion protein) (Homo sapiens, UniProt O00255).
T1 construct: biotinylated (1) wild-type menin or (2) mutated menin (described in Nature (2012) Vol. 482, pp. 542-548); fused on or other part: Biotin attached chemically (Sulfo-NHS-Biotin); no fused second protein is printed for menin
T1 sequence (O00255 1-459 limits assumed): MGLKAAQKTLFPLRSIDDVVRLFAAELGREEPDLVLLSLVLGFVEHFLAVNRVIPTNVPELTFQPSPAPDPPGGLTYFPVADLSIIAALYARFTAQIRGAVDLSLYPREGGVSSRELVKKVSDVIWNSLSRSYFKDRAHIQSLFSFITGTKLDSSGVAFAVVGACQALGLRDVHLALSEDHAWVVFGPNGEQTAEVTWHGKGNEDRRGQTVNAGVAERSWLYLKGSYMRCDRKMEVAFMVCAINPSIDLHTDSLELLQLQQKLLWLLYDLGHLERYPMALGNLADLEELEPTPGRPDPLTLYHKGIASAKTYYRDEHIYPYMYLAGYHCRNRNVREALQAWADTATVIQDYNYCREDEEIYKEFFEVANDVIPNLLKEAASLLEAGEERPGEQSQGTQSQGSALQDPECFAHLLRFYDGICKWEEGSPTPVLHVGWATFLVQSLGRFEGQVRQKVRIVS
In words: Assay 1 (Binding Assay): AlphaLISA menin/MLL binding. To be noted: 5 nM biotinylated menin, MLL-AF9-FLAG lysate. The method in brief: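 Biotinylated E. coli-expressed menin (wild-type or mutant), 5 nM, incubated 30 min RT with compound and HEK293 lysate of MLL1-1,396–AF9-FLAG in pH 7.4 Tris buffer, 5% DMSO, 1 mM DTT. Anti-FLAG acceptor and streptavidin donor beads added, 60 min RT, AlphaLISA signal read. IC50 from four-parameter fit of % inhibition.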

Experiment [2] relates to human acute monocytic leukemia cell line MV-4-11. The experiment in a line: Assay 2 (Cell Proliferation Assay), ATP quantitation (CellTiter-Glo). The experiment is classed as cell-based. As to conditions: MV-4-11 cells, read-out: Assay 2 (EC50, inhibition of cell proliferation). On the procedure:
Potencies of inhibitor compounds against cell proliferation was assessed against the human acute monocytic leukemia cell line MV-4-11 (ATCC® CRL-9591™) based on ATP quantitation. MV-4-11 cells or toxicity control HL-60 cells (ATCC® CCL-240™) were incubated in 96-well tissue culture plates (1.67×10^4 cells in 200 μL culture media containing 10% FBS per well) with or without test compound for 72 h at 37° C., 5% CO2. After incubation, each well was mixed by pipetting and 95 μL from each well was transferred to a well in 96-well black OptiPlate® plates (PerkinElmer). An equal volume of CellTiter-Glo® Luminescent Cell Viability Assay reagent (Promega) was added to each well, followed by mixing for 5 min on an orbital plate shaker. Luminescence was measured on a Wallac EnVision 2104 Multilabel Reader (PerkinElmer) to quantitate ATP. Percent inhibition of cell proliferation by test compounds was calculated based on uninhibited cell growth (DMSO) versus cells treated with a potent menin inhibitor at a concentration yielding at least 100×LD50.

In turn, `CC(C)N(C)C(=O)c1cc(F)ccc1-n1cc(C2CCC(NCc3ccc4[nH]c(=O)[nH]c4c3)CC2)c2ccncc21` (single isomer, unassigned) [Example 60A, 5-fluoro-N-isopropyl-N-methyl-2-(3-(4-(((2-oxo-2,3-dihydro-1H-benzo[d]imidazol-5-yl)methyl)amino)cyclohexyl)-1H-pyrrolo[2,3-c]pyridin-1-yl)benzamide] displayed a concentration for half-maximal inhibition (IC50) in experiment [1] below 100 nM. Also, in experiment [2] (72 h), the EC50 is at least 1000 nM.
In the case of `CC(C)N(C)C(=O)c1cc(F)ccc1-n1cc(C2CCCN(CC3CCCCC3)C2)c2ccncc21` (stereo not shown) [Example 46, 2-(3-(1-(cyclohexylmethyl)piperidin-3-yl)-1H-pyrrolo[2,3-c]pyridin-1-yl)-5-fluoro-N-isopropyl-N-methylbenzamide], the half-inhibitory concentration (IC50) in experiment [1] was below 100 nM. Moreover, the EC50 in experiment [2] (Homo sapiens, MV4-11, 72 h) was in the range of 100 to 1000 nM.
Take `CC(C)N(C)C(=O)c1cc(F)ccc1-n1cc([C@H]2CCCN(Cc3ccc4c(c3)[nH]c(=O)n4CCO)C2)c2ccncc21` (single isomer, unassigned) [Example 44A]: in experiment [1], the IC50 is below 100 nM. Further, in experiment [2] (Homo sapiens, MV4-11, 72 h), the EC50 is below 100 nM.
`CC(C)N(C)C(=O)c1cc(F)ccc1-n1cc(C2CCCN(Cc3ccc4c(c3)NC(=O)C4(C)C#N)C2)c2ccncc21` (stereo not shown) [Example 88, 2-(3-(1-((3-cyano-3-methyl-2-oxoindolin-6-yl)methyl)piperidin-3-yl)-1H-pyrrolo[2,3-c]pyridin-1-yl)-5-fluoro-N-isopropyl-N-methylbenzamide] registered an IC50 in experiment [1] below 100 nM. Moreover, in experiment [2] (Homo sapiens, MV4-11, 72 h), the EC50 is below 100 nM.
On to `CC(C)N(C)C(=O)c1cc(F)ccc1-n1cc([C@H]2CC[C@H](N3CCCC(O)C3)CC2)c2ccncc21` (stereo partly drawn) [Example 112, 5-fluoro-2-(3-(trans-4-(3-hydroxypiperidin-1-yl)cyclohexyl)-1H-pyrrolo[2,3-c]pyridin-1-yl)-N-isopropyl-N-methylbenzamide], for which the IC50 in experiment [1] was below 100 nM. Besides, the EC50 in experiment [2] (Homo sapiens, MV4-11, 72 h) was at least 1000 nM.
In experiment [1], `CC(C)N(C)C(=O)c1cc(F)ccc1-n1cc([C@H]2CC[C@H](N3CCC[C@@H]3CO)CC2)c2ccncc21` [Example 100, 5-fluoro-2-(3-(trans-4-((R)-2-(hydroxymethyl)pyrrolidin-1-yl)cyclohexyl)-1H-pyrrolo[2,3-c]pyridin-1-yl)-N-isopropyl-N-methylbenzamide] had an IC50 below 100 nM. For the same molecule, in experiment [2] (Homo sapiens, MV4-11, 72 h), the EC50 fell in the range of 100 to 1000 nM.
On the same counts, the results for `CC(C)N(C(=O)c1cc(F)ccc1-n1cc(C2CCCN(Cc3ccc4[nH]c(=O)[nH]c4c3)C2)c2ccncc21)C(C)C` (stereo not shown) [Example 84A, 5-fluoro-N,N-diisopropyl-2-(3-(1-((2-oxo-2,3-dihydro-1H-benzo[d]imidazol-5-yl)methyl)piperidin-3-yl)-1H-pyrrolo[2,3-c]pyridin-1-yl)benzamide] are below 100 nM and below 100 nM.
For `CC(C)N(C(=O)c1cc(F)ccc1-n1cc(C2CCN(Cc3ccccc3)CC2)c2ccncc21)C(C)C` [Example 33, 2-(3-(1-benzylpiperidin-4-yl)-1H-pyrrolo[2,3-c]pyridin-1-yl)-5-fluoro-N,N-diisopropylbenzamide] the same measures were below 100 nM and below 100 nM.
In turn, `CC(C)N(C)C(=O)c1cc(F)ccc1-n1cc(C2CCN(CC3CCOCC3)CC2)c2ccncc21` [Example 4, 5-fluoro-N-isopropyl-N-methyl-2-(3-(1-((tetrahydro-2H-pyran-4-yl)methyl)piperidin-4-yl)-1H-pyrrolo[2,3-c]pyridin-1-yl)benzamide] yielded an IC50 in experiment [1] below 100 nM. The EC50 in experiment [2] (Homo sapiens, MV4-11, 72 h) is at least 1000 nM.
On the same counts, the results for `Cc1ccccc1CN1CCC(c2cn(-c3ccc(F)cc3C(=O)N(C)C(C)C)c3cnccc23)CC1` [Example 14, 5-fluoro-N-isopropyl-N-methyl-2-(3-(1-(2-methylbenzyl)piperidin-4-yl)-1H-pyrrolo[2,3-c]pyridin-1-yl)benzamide] are below 100 nM and 100 to 1000 nM.
On the same counts, the results for `CC(C)N(C(=O)c1cc(F)ccc1-n1cc(C2CCCN(C[C@H]3CC[C@H](NS(C)(=O)=O)CC3)C2)c2ccncc21)C(C)C` (stereo partly shown) [Example 87, 5-fluoro-N,N-diisopropyl-2-(3-(1-(((1r,4r)-4-(methylsulfonamido)cyclohexyl)methyl)piperidin-3-yl)-1H-pyrrolo[2,3-c]pyridin-1-yl)benzamide] are below 100 nM and below 100 nM.
Consider `CC(C)N(C)C(=O)c1cc(F)ccc1-n1cc(C2CCN(Cc3ccc4cc(C#N)[nH]c4c3)CC2)c2ccncc21` [Example 8, 2-(3-(1-((2-cyano-1H-indol-6-yl)methyl)piperidin-4-yl)-1H-pyrrolo[2,3-c]pyridin-1-yl)-5-fluoro-N-isopropyl-N-methylbenzamide], for which the IC50 in experiment [1] is below 100 nM. In addition, the EC50 in experiment [2] (Homo sapiens, MV4-11, 72 h) was below 100 nM.
`CC(C)N(C)C(=O)c1cc(F)ccc1-n1cc([C@H]2CC[C@H](N3CCCC3)CC2)c2ccncc21` [Example 55, 5-fluoro-N-isopropyl-N-methyl-2-(3-(trans-4-(pyrrolidin-1-yl)cyclohexyl)-1H-pyrrolo[2,3-c]pyridin-1-yl)benzamide]: the half-maximal inhibitory concentration (IC50) in experiment [1] was below 100 nM. In addition, the EC50 in experiment [2] (Homo sapiens, MV4-11, 72 h) is 100 to 1000 nM.
`CC(C)N(C)C(=O)c1cc(F)ccc1-n1cc(C2CCN(Cc3ccc4[nH]c(=O)[nH]c4c3)C2)c2ccncc21` (stereo not shown) [Example 122, 5-fluoro-N-isopropyl-N-methyl-2-(3-(1-((2-oxo-2,3-dihydro-1H-benzo[d]imidazol-5-yl)methyl)pyrrolidin-3-yl)-1H-pyrrolo[2,3-c]pyridin-1-yl)benzamide] came in with an IC50 in experiment [1] below 100 nM. Moreover, the EC50 in experiment [2] (Homo sapiens, MV4-11, 72 h) is below 100 nM.
The molecule `CC(=O)OCCn1c(=O)[nH]c2cc(CN3CCC[C@H](c4cn(-c5ccc(F)cc5C(=O)N(C)C(C)C)c5cnccc45)C3)ccc21` [Example 85, (R)-2-(5-((3-(1-(4-fluoro-2-(isopropyl(methyl)carbamoyl)phenyl)-1H-pyrrolo[2,3-c]pyridin-3-yl)piperidin-1-yl)methyl)-2-oxo-2,3-dihydro-1H-benzo[d]imidazol-1-yl)ethyl acetate] registered an IC50 in experiment [1] below 100 nM. For the same molecule, in experiment [2] (Homo sapiens, MV4-11, 72 h), the EC50 was below 100 nM.
Turning to `CC(C)N(C)C(=O)c1cc(F)ccc1-n1cc(C2CCN(CCc3ccc(C(C)(C)C#N)cc3)CC2)c2ccncc21` [Example 29, 2-(3-(1-(4-(2-cyanopropan-2-yl)phenethyl)piperidin-4-yl)-1H-pyrrolo[2,3-c]pyridin-1-yl)-5-fluoro-N-isopropyl-N-methylbenzamide], the IC50 in experiment [1] is below 100 nM. For the same molecule, the EC50 in experiment [2] (Homo sapiens, MV4-11, 72 h) fell in the range of 100 to 1000 nM.
For `CCCCCCCCCCCCCCCCCC(=O)OCCn1c(=O)[nH]c2cc(CN3CCC[C@H](c4cn(-c5ccc(F)cc5C(=O)N(C)C(C)C)c5cnccc45)C3)ccc21` [Example 86, (R)-2-(5-((3-(1-(4-fluoro-2-(isopropyl(methyl)carbamoyl)phenyl)-1H-pyrrolo[2,3-c]pyridin-3-yl)piperidin-1-yl)methyl)-2-oxo-2,3-dihydro-1H-benzo[d]imidazol-1-yl)ethyl stearate] the same measures were below 100 nM and below 100 nM.
For `CC(C)N(C)C(=O)c1cc(F)ccc1-n1cc(C2CCN(Cc3ccc(C#N)cc3)CC2)c2ccncc21` [Example 12, 2-(3-(1-(4-cyanobenzyl)piperidin-4-yl)-1H-pyrrolo[2,3-c]pyridin-1-yl)-5-fluoro-N-isopropyl-N-methylbenzamide] the same measures were below 100 nM and 100 to 1000 nM.
Molecule `Cc1c(CN2CCC(c3cn(-c4ccc(F)cc4C(=O)N(C)C(C)C)c4cnccc34)CC2)ccc2[nH]c(C#N)cc12` [Example 2, 2-(3-(1-((2-cyano-4-methyl-1H-indol-5-yl)methyl)piperidin-4-yl)-1H-pyrrolo[2,3-c]pyridin-1-yl)-5-fluoro-N-isopropyl-N-methylbenzamide] yielded an IC50 in experiment [1] below 100 nM. Further, the EC50 in experiment [2] (Homo sapiens, MV4-11, 72 h) is below 100 nM.
As to `CC(C)N(C)C(=O)c1cc(F)ccc1-n1cc(C2CCCN(Cc3ccc4c(c3)[nH]c(=O)n4CCO)C2)c2ccncc21` (stereo not shown) [Example 44, 5-fluoro-2-(3-(1-((1-(2-hydroxyethyl)-2-oxo-2,3-dihydro-1H-benzo[d]imidazol-5-yl)methyl)piperidin-3-yl)-1H-pyrrolo[2,3-c]pyridin-1-yl)-N-isopropyl-N-methylbenzamide], the IC50 in experiment [1] is below 100 nM. Moreover, in experiment [2] (72 h), the EC50 is below 100 nM.
